In patent US20100197584A1, “USE OF CURCUMIN TO BLOCK BRAIN TUMOR FORMATION IN MICE” (Research Foundations of the City University of- New York, priority 2007, published 2010):

Key:
[1] = test system: B16F10 (mouse melanoma) cells; assay: Caspase-3/7 assay in B16F10 cells; assay type: cell-based; conditions: 20 μM and 50 μM, 48 h or 96 h (FIG. 1)
Experimental: (§1) Cells. B16F10 (mouse melanoma), GL261 (mouse glioma), HOG (human oligodendroglioma), A549 (human lung cancer), and […] (mouse neuroblastoma) cells were cultured separately in DMEM containing 10% (v/v) fetal bovine serum and 1% (v/v) penicillin-streptomycin (PS) and allowed to grow to 40% confluence in a 96-well plate. Curcumin Treatment. Two hours before drug treatment, the medium in each well was replaced with 200 μl Neurobasal medium supplemented with 2% (v/v) B27 and 1% (v/v) PS (Drug-treatment Medium). A stock solution (40 mM) of curcumin was prepared in sterile dimethyl sulfoxide (DMSO) (Example 1). Through serial dilution of each stock solution in Drug-treatment Medium, the following concentrations were obtained: 20 μM and 50 μM (for caspase 3/7 assays) or 25 μM and 50 μM (for MTT assays). Drug-treatment Medium in each well was aspirated, and a drug solution of each concentration or carrier-containing medium (control) was added to triplicate wells of cells (50 μl/well). […] Additionally, the background absorbance was determined from parallel wells containing only the Drug-treatment Medium plus a particular concentration of the drug (no cells). […] Fluorescence in each well was measured using the FLx 800 plate reader (Bio-Tek Instruments, Winooski, Vt.) set at 485/20 nm excitation and 528/20 nm emission wavelengths and the sensitivity of 70. […]

[2] = test system: GL261 (mouse glioma) cells; assay: Caspase-3/7 assay in GL261 cells; assay type: cell-based; conditions: 20 μM and 50 μM, 48 h (FIG. 4)
Experimental: as §1

[3] = test system: B16F10 mouse melanoma cells; assay: Tumor formation in peripheral tissue (B16F10 cells injected into the neck); assay type: in vivo, C57BL mice
Experimental: Generation of Tumors. C57BL mice were given food and water ad libitum and subjected to 12 hour dark/12 hour light cycles. To generate tumors in the peripheral tissue, B16F10 mouse melanoma cells (10^4 cells in 10 μl PBS) were injected into the necks of male and female C57BL mice. Curcumin Treatment. The control mice received, aseptically, the carrier (3% DMSO in 200 μl PBS) daily through the tail vein after placing the mouse in a restraining cage without anesthetics. Other mice similarly received […] in 200 μl of PBS containing 3% DMSO daily through the tail vein.

[4] = test system: Erk; assay: Western blot of B16F10 cells, Erk; assay type: cell-based, mouse; conditions: 50 μM (FIG. 9)
Experimental: B16F10 cells were cultured in 10-cm plates and then treated in duplicate with carrier or curcumin (50 μM). Following treatment for appropriate time periods, the cells were washed with PBS, lysed in RIPA buffer (PBS containing 1% Nonidet P40, 0.5% sodium deoxycholate, 0.1% SDS, 0.5 mM Na3VO4 plus freshly added PMSF and protease inhibitor cocktail; Boeringer-Roche), and then 20 μg of lysate protein (per lane) were analyzed by SDS-10% PAGE and Western blot analysis. Antibody concentrations used were: anti-phospho-NF-κB (1:1000) (Santa Cruz Biotechnology, Santa Cruz, Calif.), anti-phospho-Akt (1:5000) (Cell Signaling, CA), anti-cyclin D1 (1:1000) (Cell Signaling, CA), anti-BclXL (1:500) (Santa Cruz Biotechnology), anti-VEGF (1:500) (Santa Cruz Biotechnology), and anti-β-actin (1:1000) (Sigma, St. Louis, Mo.).

[5] = test system: normal (non-tumor) brain cells; assay: Normal brain cell viability (MTT on brain sections); assay type: in vivo; conditions: 200 μl of 667 μM, tail vein, three consecutive days; compared to carrier-injected mice (FIG. 10)
Experimental: In each experiment, three mice were injected with 200 μl of PBS containing 3% DMSO, and three mice were injected with 200 μl of 667 μM curcumin (as described earlier) through the tail vein on three consecutive days by the method described above. On the fourth day, the mice were perfused with PBS through the heart, and the brains sectioned into 400-μm sections. Similar brain sections were also made from untreated mice which were then treated with 1 mM H2O2 in PBS for one hour, followed by incubation in H2O2-free DTM for three hours. These samples were used as a positive control for cell death.
The sections from each mouse were placed in 400 μl PBS in one well of a 48-well plate (i.e. three wells for three mice) and then treated with 200 μl of MTT (5 mg/ml) per well with gentle mixing at 37° C. for about 2 hours. Subsequently, 800 μl of the lysis buffer was added to each well, and the plate was sealed and incubated overnight at 37° C. with gentle mixing. Three 100-μl portions of the tissue solution obtained were next transferred to three respective wells of a 96-well plate (i.e. three wells per mouse and nine wells for three mice in one group) and absorbance at 570 nm was measured using a 96-well multi scanner auto-reader. Results obtained were normalized to protein levels and then expressed as percent of carrier-treated samples.

[6] = test system: ovarian cancer; conditions: orthotopic murine model of ovarian cancer (Lin et al. 2007); cited from earlier work
[7] = test system: rat glioma cells; conditions: rat glioma cells in vitro (Karmakar 2006; Dhandapani 2007); cited from earlier work

Question: What does the source list for `COc1cc(/C=C/C(=O)CC(=O)/C=C/c2ccc(O)c(OC)c2)ccc1O` [curcumin]?
Answer: caspase-3/7 activity [1]: increased; caspase-3/7 activity [2]: increased; condition of mice after treatment ([3]; even after the curcumin injection had been discontinued for 18 days, carrier mice died in about a month): remained normal indefinitely; outward sign of tumor or lesion ([3]; male and female C57BL mice, B16F10 cells in neck, 667 curcumin in 200 μl PBS 3% DMSO daily, tail vein): no outward sign of tumor or lesion; Erk (Western blot) [4]: suppression; cell viability in the brain (MTT activity) [5]: did not cause suppression of cell viability; tumor growth [6]: reduces tumor growth; apoptosis [7]: triggers apoptosis
